# From ChEMBL document CHEMBL1201862, “PubChem BioAssay data set” (2004)
#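 In this assay, cells in 96-well plates receive the compound at five concentrations for 48 hours. Endpoints are linearly interpolated between the surrounding concentrations. The concentration for 50% growth inhibition is given as GI50.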 The source made the active and inactive calls. Cut-off read from the data, not from the text of the source: active = GI50 up to about 1.1 µM and inactive = higher.
# How the values were obtained:
# Assay in all cases: NCI-60 cell line screen, 48 h
# [1] = test system: A549
# [2] = test system: CAKI-1
# [3] = test system: DLD-1
# [4] = test system: HCT-15
# [5] = test system: HOP-62
# [6] = test system: IGROV-1
# [7] = test system: K562
# [8] = test system: LOX IMVI
# [9] = test system: OVCAR-3
# [10] = test system: RXF 393
# [11] = test system: SF-539
# [12] = test system: SK-MEL-2
# [13] = test system: TK-10
# [14] = test system: UACC-257
# [15] = test system: HCT-116
# [16] = test system: U-251
# [17] = test system: BT-549
# [18] = test system: DU-145
# [19] = test system: MCF7
# [20] = test system: PC-3
Compound,GI50 [1],GI50 [2],GI50 [3],GI50 [4] [µM],GI50 [5],GI50 [6],GI50 [7],GI50 [8],GI50 [9],GI50 [10],GI50 [11],GI50 [12],GI50 [13],GI50 [14],GI50 [15],GI50 [16],GI50 [17],GI50 [18],GI50 [19],GI50 [20]
CC/C=C1\N=C(c2ccc(Cl)cc2)OC1=O,> 100 µM (inactive),> 100 µM (inactive),> 100 µM (inactive),> 100,> 100 µM (inactive),> 100 µM (inactive),> 100 µM (inactive),> 100 µM (inactive),> 100 µM (inactive),> 100 µM (inactive),> 100 µM (inactive),> 100 µM (inactive),> 100 µM (inactive),> 100 µM (inactive),–,–,–,–,–,–
COc1ccc2c3c([nH]c2c1[N+](=O)[O-])C(C)N(Cc1ccccc1)CC3 (stereo not given),5.05 µM (inactive),2.47 µM (inactive),> 100 µM (inactive),3.61,2.07 µM (inactive),3.57 µM (inactive),0.643 µM (active),3.91 µM (inactive),3.52 µM (inactive),3.21 µM (inactive),1.79 µM (inactive),3.52 µM (inactive),9.25 µM (inactive),2.39 µM (inactive),3.08 µM (inactive),2.67 µM (inactive),–,–,–,–
COc1c(C)cc2c(c1O)C1NC(C2)[C@H](O)N2C3COC(=O)[C@@]4(CS[C@@H](c5c(OC(C)=O)c(C)c6c(c53)OCO6)C12)NCCC1=C4NC2C=CC=CC12 (stereo not given in full),< 0.01 µM (active),–,< 0.01 µM (active),0.0104,< 0.01 µM (active),< 0.01 µM (active),< 0.01 µM (active),< 0.01 µM (active),< 0.01 µM (active),< 0.01 µM (active),< 0.01 µM (active),< 0.01 µM (active),< 0.01 µM (active),–,< 0.01 µM (active),< 0.01 µM (active),–,–,–,–
Cc1ccc(C)c(NC(=O)C(=O)C(C2C(C)CC(=O)C2CC(=O)O)[N+](=O)[O-])c1 (stereo not given),> 100 µM (inactive),> 100 µM (inactive),> 100 µM (inactive),> 100,> 100 µM (inactive),> 100 µM (inactive),> 100 µM (inactive),> 100 µM (inactive),> 100 µM (inactive),> 100 µM (inactive),> 100 µM (inactive),> 100 µM (inactive),> 100 µM (inactive),> 100 µM (inactive),> 100 µM (inactive),> 100 µM (inactive),–,–,–,–
C[N+](C)(C)Cc1c(CC#N)[nH]c2ccccc12,> 100 µM (inactive),96.8 µM (inactive),> 100 µM (inactive),> 100,> 100 µM (inactive),> 100 µM (inactive),25.8 µM (inactive),> 100 µM (inactive),> 100 µM (inactive),> 100 µM (inactive),> 100 µM (inactive),> 100 µM (inactive),> 100 µM (inactive),> 100 µM (inactive),> 100 µM (inactive),> 100 µM (inactive),–,–,–,–
CC1CC2CC(=O)CC3(C1)C2CCCN3CCCO (stereo not given),> 100 µM (inactive),> 100 µM (inactive),> 100 µM (inactive),–,> 100 µM (inactive),> 100 µM (inactive),> 100 µM (inactive),> 100 µM (inactive),> 100 µM (inactive),> 100 µM (inactive),> 100 µM (inactive),> 100 µM (inactive),> 100 µM (inactive),> 100 µM (inactive),> 100 µM (inactive),> 100 µM (inactive),–,–,–,–
NC1=C(Br)C(=O)c2ncccc2C1=O,0.855 µM (active),1.51 µM (inactive),0.607 µM (active),0.352,0.632 µM (active),1.11 µM (active),0.277 µM (active),0.137 µM (active),1.09 µM (active),0.258 µM (active),0.189 µM (active),0.346 µM (active),2.62 µM (inactive),0.483 µM (active),0.22 µM (active),0.177 µM (active),–,–,–,–
O=c1c2ccccc2c2c3c1cccc3c1cccc3c(=O)c4ccccc4c2c31,> 100 µM (inactive),> 100 µM (inactive),> 100 µM (inactive),> 100,> 100 µM (inactive),> 100 µM (inactive),> 100 µM (inactive),> 100 µM (inactive),> 100 µM (inactive),> 100 µM (inactive),> 100 µM (inactive),> 100 µM (inactive),> 100 µM (inactive),> 100 µM (inactive),> 100 µM (inactive),> 100 µM (inactive),–,–,–,–
CC(=O)n1ccc2c(Cl)ncnc21,> 100 µM (inactive),> 61.4 µM (inactive),> 100 µM (inactive),> 100,> 100 µM (inactive),> 100 µM (inactive),> 100 µM (inactive),> 100 µM (inactive),> 100 µM (inactive),0.038 µM (active),> 100 µM (inactive),> 100 µM (inactive),> 100 µM (inactive),> 100 µM (inactive),> 100 µM (inactive),> 100 µM (inactive),–,–,–,–
O=C(/C=C/c1c(O)ccc2ccccc12)c1ccc([N+](=O)[O-])cc1,> 95.9 µM (inactive),37.8 µM (inactive),18.7 µM (inactive),25.2,> 100 µM (inactive),> 60.8 µM (inactive),> 49.4 µM (inactive),16.7 µM (inactive),17.3 µM (inactive),23.1 µM (inactive),37.8 µM (inactive),33.2 µM (inactive),> 53.5 µM (inactive),25.2 µM (inactive),19.3 µM (inactive),46.5 µM (inactive),–,–,–,–
CC[P+](C)(Cc1ccccc1)c1ccccc1.O=C(OC(C(=O)[O-])C(OC(=O)c1ccccc1)C(=O)O)c1ccccc1 (stereo not given),> 100 µM (inactive),> 100 µM (inactive),> 100 µM (inactive),> 100,> 100 µM (inactive),> 100 µM (inactive),> 100 µM (inactive),> 100 µM (inactive),–,> 100 µM (inactive),> 100 µM (inactive),> 100 µM (inactive),> 100 µM (inactive),> 100 µM (inactive),–,> 100 µM (inactive),–,–,–,–
CC(C)CCCCCCCCCCCCC(=O)NCC(=O)NC1C(O)C(O)C(Nc2[nH]cnc3ncnc2-3)OC1C(O)CO (stereo not given),–,0.000472 µM (active),0.0205 µM (active),0.0653,0.000453 µM (active),0.000508 µM (active),0.0436 µM (active),0.000508 µM (active),0.000605 µM (active),0.000877 µM (active),0.000849 µM (active),0.00579 µM (active),0.179 µM (active),0.000605 µM (active),0.000479 µM (active),0.000461 µM (active),0.207 µM (active),0.19 µM (active),0.0234 µM (active),0.183 µM (active)
O=C(c1ccccc1)c1nc2c(Cl)ccc(Cl)c2cc1C(Br)Br,3.08 µM (inactive),1.58 µM (inactive),0.444 µM (active),0.69,1.67 µM (inactive),2.75 µM (inactive),0.311 µM (active),1.65 µM (inactive),1.55 µM (inactive),2.34 µM (inactive),0.484 µM (active),2.01 µM (inactive),1.43 µM (inactive),0.419 µM (active),0.375 µM (active),1.11 µM (active),–,–,–,–
COc1ccc(C2=NC(C)(C)CO2)cc1,> 100 µM (inactive),> 100 µM (inactive),> 100 µM (inactive),> 100,> 100 µM (inactive),> 100 µM (inactive),> 100 µM (inactive),82.6 µM (inactive),> 100 µM (inactive),> 100 µM (inactive),> 100 µM (inactive),> 100 µM (inactive),> 100 µM (inactive),> 100 µM (inactive),> 100 µM (inactive),> 100 µM (inactive),–,–,–,–
